The results in this text go back to ChEMBL document CHEMBL5338752, “Carbamate JNK3 Inhibitors Show Promise as Effective Treatments for Alzheimer's Disease: In Vivo Studies on Mouse Models” (J Med Chem, 2023).

Activity calls are given as the source filed them. The calls are words filed in the database; no cut-off is given here.

Data set [1] is described as follows: Half life in sixteen hrs fasted Sprague-Dawley rat at 3 mg/kg, po measured upto 24 hrs by LC-MS/MS analysis. The data set is classed as ADME, organism-based. The note with it: in vivo.
Data set [2] concerns the target Mitogen-activated protein kinase 10 (Rattus norvegicus) (UniProt P49187). Put plainly: Inhibition of A-beta (1 to 42) induced JNK3 activation in rat cortex neuron cells assessed as reduction in c-Jun phosphorylation levels at 10 to 20 uM incubated for 24 hrs in presence of A-beta (1 to 42) by Western blot analysis. Conditions: dose 10-20 µM. The data set is classed as cell-based. Background: In western blotting, separated proteins are transferred to a membrane and probed.

Data set [3] relates to Mus musculus. Put plainly: Anti-alzheimer activity against triple transgenic mouse alzheimer disease model assessed as spontaneous alteration at 30 mg/kg, po administered daily for 2.2 months and measured after 119 days by Y-maze test (reference value: 45.55+/-2.30%). It is filed as functional. Conditions: time 119 day.
For data set [4], the system named is Mus musculus. Briefly: Anti-alzheimer activity against triple transgenic mouse alzheimer disease model assessed as latency time at 30 mg/kg, po administered daily for 2.2 months and measured after 122 to 123 days by passive avoidance test (reference value: 31.3+/-6.9 sec). It is filed as functional. Conditions: time 122-123 day.
The subject of data set [5] is Mus musculus. Briefly: Anti-alzheimer activity against triple transgenic mouse alzheimer disease model assessed as time spent in platform quadrant at 60 mg/kg, po administered daily for 2.2 months and measured after 137 days by Morris water maze test (reference value: 12.26+/-2.34 sec). It is filed as functional. Conditions: time 137 day.
Data set [6] has as its system Mus musculus. Put plainly: Anti-alzheimer activity against triple transgenic mouse alzheimer disease model assessed as time spent in target zone at 30 mg/kg, po administered daily for 2.2 months and measured after 137 days by Morris water maze test (reference value: 4.48+/-1.63 sec). It is filed as functional. Conditions: time 137 day.
Data set [7] deals with Mus musculus. Put plainly: Anti-alzheimer activity against triple transgenic mouse alzheimer disease model assessed as time spent in target zone at 60 mg/kg, po administered daily for 2.2 months and measured after 137 days by Morris water maze test (reference value: 4.48+/-1.63 sec). The note with it: time 137 day. It is filed as functional.
Data set [8] deals with Mus musculus. Briefly: Anti-alzheimer activity against triple transgenic mouse alzheimer disease model assessed as escape latency time at 60 mg/kg, po measured upto 5 days by Morris water maze test (reference value: 58.62+/-1.15 sec). It is filed as functional. Conditions: time <= 5 day.
In data set [9] the test system is Mus musculus. Put plainly: Anti-alzheimer activity against triple transgenic mouse alzheimer disease model assessed as path length at 30 mg/kg, po measured upto 5 days by Morris water maze test (reference value: 608.85+/-39.27 cm). It is filed as functional. The note with it: time <= 5 day.
Data set [10] relates to Mus musculus. Briefly: Anti-alzheimer activity against APP/PS1 dE9 double transgenic mouse model assessed as time spent in platform quadrant at 60 mg/kg, po administered daily for 2 months and measured after 74 days by Morris water maze test (reference value: 10.50+/-4.15 sec). Conditions: time 74 day. It is filed as functional.
Data set [11] deals with Mus musculus. Put plainly: Anti-alzheimer activity against APP/PS1 dE9 double transgenic mouse model assessed as time spent in target zone at 30 mg/kg, po administered daily for 2 months and measured after 74 days by Morris water maze test (reference value: 6.76+/-3.20 sec). It is filed as functional. The note with it: time 74 day.
The subject of data set [12] is Mus musculus. Briefly: Anti-alzheimer activity against triple transgenic mouse alzheimer disease model assessed as reduction in tau phosphorylation level at T181 residue in hippocampal tissue at 30 to 60 mg/kg by Western blot analysis. It is filed as functional, organism-based. Conditions: dose 30-60 mg/kg.

Sequence of Mitogen-activated protein kinase 10 (Rattus norvegicus) (P49187 whole entry): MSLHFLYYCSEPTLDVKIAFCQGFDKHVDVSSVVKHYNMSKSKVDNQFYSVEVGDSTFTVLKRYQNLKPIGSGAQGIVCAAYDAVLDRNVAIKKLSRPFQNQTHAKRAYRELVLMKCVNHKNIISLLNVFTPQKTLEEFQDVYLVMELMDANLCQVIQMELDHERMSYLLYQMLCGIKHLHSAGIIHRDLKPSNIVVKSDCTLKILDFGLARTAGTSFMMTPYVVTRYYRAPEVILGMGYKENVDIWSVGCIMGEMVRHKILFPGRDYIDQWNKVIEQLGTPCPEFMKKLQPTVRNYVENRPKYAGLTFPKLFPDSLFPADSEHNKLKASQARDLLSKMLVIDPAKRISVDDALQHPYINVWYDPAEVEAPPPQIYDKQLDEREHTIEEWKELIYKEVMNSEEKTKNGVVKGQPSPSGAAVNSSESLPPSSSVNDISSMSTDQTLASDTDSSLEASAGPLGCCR

In general, half-life refers to how long it takes for the measured level to halve. A high value points to slow decline. `CNC(=O)Oc1cc(F)c2nc(-c3ccc4ccccc4c3)n(-c3ccnc(N[C@H]4CCCN(C(=O)C5CC5)C4)n3)c2c1` gave a half-life in [1] of 58.2 min. Moreover, the inhibition result in [2] is “Active”. The Activity in the data set with Mus musculus [3] was 49.78%; with Mus musculus [9], 402.59 cm. For the same compound, the Time in the data set on Mus musculus [4] came out at 31.6 s; in the data set on Mus musculus [5] it was 22.59 s; in the data set with Mus musculus [6] it was 17.1 s; in the data set with Mus musculus [7] it was 16.28 s; in the data set on Mus musculus [8], 25.72 s; in the data set on Mus musculus [10], 21.78 s. In addition, in the data set on Mus musculus [11], the Time is on record as 11.4 s. Moreover, the result with Mus musculus [12] was Active.
